Series [1] relates to HepG2. In words: Induction of apoptosis in human HepG2 cells assessed as necrotic cells at 0.5 uM after 48 hrs by annexin V FITC and propidium iodide staining based flow cytometric analysis (reference value: 0.89%). It counts as functional. On the technique in general: Flow cytometry measures light scatter and fluorescence of single cells or particles in a stream.
A further series deals with HCT-116. The series is described as follows: Antiproliferative activity against human HCT-116 cells assessed as reduction in cell viability after 72 hrs by MTT assay. The settings on record: HCT-116, 72 h.
Series [2] relates to K562. In words: Induction of cell cycle arrest in human K562 cells assessed as accumulation at S phase at 2 uM after 48 hrs by propidium iodide staining based flow cytometric analysis (reference value: 44.73 to 45.96%). It is filed as functional.
A further series relates to B16. The series is described as follows: Antiproliferative activity against mouse B16 cells assessed as reduction in cell viability after 72 hrs by MTT assay. The settings on record: B16, 72 h.
In series [3] the test system is K562. In words: Induction of apoptosis in human K562 cells assessed as early apoptotic cells at 1 uM after 48 hrs by annexin V FITC and propidium iodide staining based flow cytometric analysis (reference value: 2.13%). It counts as functional.
In series [4] the test system is HepG2. In words: Induction of apoptosis in human HepG2 cells assessed as necrotic cells at 1 uM after 48 hrs by annexin V FITC and propidium iodide staining based flow cytometric analysis (reference value: 0.89%). It counts as functional.
Series [5] is described as follows: Selectivity ratio of IC50 for cytotoxicity against human PBMC cells to IC50 for antiproliferative activity against human HepG2 cells. It is filed as toxicity, cell-based. The settings on record: read-out: Ratio IC50.
For another series, the system named is MCF7. In words: Antiproliferative activity against human MCF7 cells assessed as reduction in cell viability after 72 hrs by MTT assay. The settings on record: MCF7, 72 h. On the technique in general: Tetrazolium assays rely on reduction of a dye to a coloured formazan, in cell work by metabolically active cells.
Series [6] relates to K562. The series is described as follows: Induction of apoptosis in human K562 cells assessed as viable cells at 0.5 uM after 48 hrs by annexin V FITC and propidium iodide staining based flow cytometric analysis (reference value: 96.76%). It is filed as functional. The settings on record: read-out: Activity.
The subject of series [7] is K562. The series is described as follows: Induction of apoptosis in human K562 cells assessed as early apoptotic cells at 0.5 uM after 48 hrs by annexin V FITC and propidium iodide staining based flow cytometric analysis (reference value: 2.13%). It counts as functional.

What is called IC50 is the midpoint of a concentration-inhibition curve.

Turning to `C=C1C(=O)[C@]23[C@H](OC(=O)CCC(=O)OCCCCCCOc4ccc(-c5cc(=S)ss5)cc4)[C@H]1CC[C@H]2[C@@]12CO[C@@]3(O)[C@@H](O)[C@@H]1C(C)(C)CC[C@@H]2OC(C)=O`, the Activity in the series on HepG2 [1] stood at 2.7%; in the series with K562 [2], 62.64%; in the series with K562 [3], 11.39%; in the series with HepG2 [4], 1.26%; in the series on K562 [7] it was 7.1%. The figures for the IC50 with HCT-116, with B16 and in the series on MCF7 were 5.81 µM, 12.9 µM and 16.1 µM, respectively. The selectivity ratio in [5] was 20. Further, the viability at 0.5 µM with K562 [6] is 87%.

Values taken from ChEMBL document CHEMBL4706489, “Hydrogen sulfide releasing oridonin derivatives induce apoptosis through extrinsic and intrinsic pathways” (Eur J Med Chem, 2020).
